Laboratory results reported in US10842807B2, “Methods of treating neurodegenerative disorders comprising DNA methyltransferase inhibitors” (Washington University, priority 2016, dated 2020).

Experiments:
[1] = system: Bdnf exon IV, VI, and IX transcripts; assay: qRT-PCR of Bdnf exon transcripts in Htt-72Q cortical neurons; assay type: cell-based, mouse; conditions: Htt-72Q-expressing cortical neurons; vs. Htt-72Q plus vehicle
Description: RNA was harvested 5 days later and subjected to qRT-PCR for total Bdnf (coding exon IX) using β-actin and 18S rRNA as reference genes. […] FIG. 3C depicts the schematic of the mouse Bdnf locus and the relative RNA levels of the Bdnf exons. White boxes, non-coding exons; gray box, coding exon. qRT-PCR was performed as in using exon-specific Bdnf primers. […] (FIG. 3G, FIG. 3H) Cortical neurons were co-transduced with lenti viruses expressing Htt and indicated shRNA and processed as in (FIG. 3C). […] (FIG. 3I) Primary cortical neurons from BACHD mice were treated with decitabine (0.2 μM) or vehicle for 3.5 days. qRT-PCR was performed using β-actin as a reference gene. […] Data are presented as mean+SEM.
Mouse primary cortical and striatal neurons from embryonic day (E) 15.5 Swiss Webster mouse fetuses (Taconic) were first plated in the minimal essential medium (MEM) containing 10% FBS, 0.45% glucose, 1 mM sodium pyruvate, 2 mM glutamine, 20 U/ml penicillin and 20 μg/ml streptomycin, for 3 h and then maintained in serum-free Neurobasal medium (Life Technologies) containing NeuroCult™ SM1 neuronal supplement ([…] Technologies), 0.5 mM glutamine and 25 μM glutamate for the first 3 d in a humidified incubator (37° C. in 5% CO2). Half of the medium was replaced with Neurobasal medium with SM1 and 0.5 mM glutamine every 3 days.

[2] = system: 5-mC in Bdnf promoter IV region; assay: MeDIP-qPCR of Bdnf promoter IV; assay type: cell-based, mouse; conditions: Htt-72Q-expressing cortical neurons, 0.2 μM vs DMSO
Source text: FIG. 4A-4H illustrate that mutant Htt increased the levels of DNA methylation at Bdnf exon IV regulatory region in primary cortical neurons. (FIG. 4A) Schematic of the mouse Bdnf exon IV regulatory region near the TSS. The positions of CpG sites are indicated relative to the TSS. (FIG. 4B) DIV 5 primary cortical neurons were infected with lentivirus expressing Htt-25Q or Htt-72Q exon 1 fragment; 5 days later, genomic DNA was purified and subjected to bisulfite sequencing analysis. […] Increased DNA methylation was found in mutant Htt-expressing neurons compared to WT Htt-expressing neurons. 28-30 clones from 7 independent experiments were analyzed (See FIG. 11A) for the bisulfite sequencing data from each clone). The number above the black bar (Htt-72Q) represents the fold changes in methylated cytosine relative to the white bar (Htt-25Q) at the indicated position. (FIG. 4C) Genomic DNA was purified from primary cortical neurons transduced as in (B) and subjected to MeDIP with anti-5-mC antibody followed by qPCR. […]
Genomic DNA was isolated from primary cortical neurons using QIAamp DNA Mini Kit (QIAGEN) and fragmented by sonication using Bioruptor (Diagenode). […] The percentage input was calculated by first normalizing IP to input DNA using the formula (2^[(Ct(10% input)-3.32)-Ct(IP)]×100) as described previously^89. […]

SMILES | expression of Bdnf exon IV, VI, and IX transcripts [1] | levels of 5-mC in Bdnf promoter IV region (MeDIP) [2]
Nc1ncn([C@H]2C[C@H](O)[C@@H](CO)O2)c(=O)n1 [decitabine, 5-aza-2′-deoxycytidine] | increased the expression of Bdnf exon IV, VI, and IX transcripts | decreased levels of 5-mC in Bdnf promoter IV region
Nc1nc(=O)n([C@H]2C[C@H](O)[C@@H](CO)O2)cc1F [FdCyd, 5-fluoro-2′-deoxycytidine] | increased the expression of Bdnf exon IV, VI, and IX transcripts | decreased levels of 5-mC in Bdnf promoter IV region
